Reference: patent US20220249596A1, “PIC1 PEPTIDE COMPOSITIONS AND METHODS OF USE THEREOF FOR TREATMENT OF HYPOXIC ISCHEMIC ENCEPHALOPATHY” (REALTA HOLDINGS, LLC, priority 2019, published 2022)
Entries after “also recorded” stand apart in the source; their conditions may differ. No end group written: not given here.

Legend:
[1] = tested on: apoptosis in cortex and hippocampus; experiment: TUNEL/DAPI/C1q staining of brain sections 48 hours after injury; type: in vivo, rat
Description: To assess the effect of PIC1 on cell death at 48 hours after the initial injury, TUNEL staining, alone or in combination with C1q staining, was utilized to measure DNA strand breaks that are generated during apoptosis.
(§1) TUNEL/C1q staining was performed as follows. Five (5) μm paraffin-embedded coronal brain sections on slides were incubated (1 hour; 60° C.), deparaffinized with xylene, and rehydrated with ethanol (100%, 95%, 70%; RT). Endogenous peroxidase activity was blocked (0.3% H2O2/MeOH; 10 minutes; RT), and heat induced antigen retrieval was performed (when indicated) using 10 mM sodium citrate, pH 6.0. 10% normal serum (from the same species as the host of the secondary antibody) was used to block and to dilute antibodies. Samples were washed twice for 10 min each, in PBST between each step.
For C1q/TUNEL co-staining, tissue was incubated with the TUNEL solution according to manufacturer's instructions (In Situ Cell Death Detection Kit, Roche Molecular Diagnostics, Pleasanton, Calif.), followed by blocking with NGS for one hour at room temperature. C1q was probed using 1:300 mouse anti-C1q (Abcam) in NGS for 30 min at 37° C., followed by incubation in 1:500 goat anti-mouse (Abcam) AF 568 for 30 min at 37° C. All samples were mounted with aqueous mounting media comprising 4′,6-diamidino-2-phenylindole (Vectashield antifade mounting medium with DAPI, Vector Laboratories, Burlingame, Calif.) and coverslipped.
Fluorescent images of the cortex were taken at 20× magnification using a digital camera (DP70, Olympus Center, Valley Forge, Pa.), mounted on a BX50 Olympus microscope. Adobe Photoshop CS5 was used to merge immunofluorescence images, and Image J (National Institutes of Health) was used for analysis.

brain infarct after HIE = details: rat, in vivo, ip, 160 mg/kg
C1q = experiment: Immunofluorescence quantification of C1q in brain; type: in vivo, rat; details: ipsilateral cortex and hippocampus, 48 hours, versus NT and HT, P<0.05
Description: as §1
After blocking for one hour at room temperature, tissues were incubated with 1:300 goat anti-Iba1 (Abcam), 1:250 goat anti-GFAP (Abcam), 1:500 chicken anti-NeuN (Millipore, Billerica, Mass.), or 1:100 mouse anti-NeuN (Millipore) in host appropriate blocking serum overnight at 4° C. Primary antibodies were probed with 1:500 donkey anti-goat (Abcam), goat anti-chicken (Abcam), or goat anti-mouse (Abcam) AF 488 or 568 in appropriate blocking serum for one hour at room temperature. Tissues were blocked a second time with NGS for one hour at room temperature. […]

[2] = Beam balance test (tapered/ledged beam); type: in vivo, rat; details: six weeks after surgery
Description: (§2) No other preparation was needed. The thawed tubes were kept on ice until dosing.
Six weeks after surgery, the sensory motor functions of forelimbs and hindlimbs were tested using tapered/ledged beam (Zhao et al., Behav. Brain Res. 156 (2005), 85-94). The shape of the beam was square. The rats were pre-trained for 3 days to traverse the beam. The beam-walking apparatus consists of a horizontal 160 cm tapered (square) beam with underhanging ledges on each side to permit foot faults without falling. The end of the beam was connected to a black box (20.5 cm×25 cm×25 cm) with a platform at the starting point. A bright light was placed above the start point to motivate the rats to traverse the beam. The rats' performance was videotaped and were analyzed by calculating the slip ratio of the impaired (contralateral to lesion) forelimb and hindlimb (number of slips/number of total steps). Steps onto the ledge were scored as a full slip and a half slip was given if the limb touched the side of the beam. Also, the walking/running time on the beam were measured. The mean of three trials were used for statistical analyses. Analysis was carried out by an observer blind to the experimental groups.

T-maze test = type: in vivo, rat; details: six weeks after surgery, between study groups, pooled and separated genders
Description: as §2
The T-maze test apparatus was plastic with two 45 cm long arms, which extend at right-angles from a 57 cm long alley (see www.noldus.com/animal-behavior-research/t-maze). The arms have a width of 10 cm and were surrounded by 10 cm high walls. The test consists of two trials at an interval of five minutes, during which time the animals are returned to their home cages. During an eight minute acquisition trial, one of the short arms was closed. In a three minute test trial, rats had access to both arms and to the alley. Time spent in each of the arms and in the long alley was assessed. Cognitively healthy rats tended to spend more time in the novel arm than in the familiar one or in the alley.
In an eight minute acquisition trial, while the novel arm is blocked, each rat was lowered to the beginning of the alley arm, facing the wall, and allowed to freely explore the maze's arms (start arm (alley arm), center and familiar arm), while the novel arm was inaccessible. […]
During the three minute test trial, with all three arms accessible (the wall of the novel arm was removed), each rat was allowed to freely explore the whole maze. Time spent in each of the arms was recorded using EthoVision XT 11 automated tracking system (Noldus Information Technology).

IALILEPICCQERAA-dPEG24 (cysteine pairing not given here) [PIC1]
TUNEL positive cells (DNA fragmentation), cortex and hippocampus ([1]; 48 hours, versus NT (P=0.02) and HT (P=0.04)): significantly fewer
cell count ([1]; PIC1- versus HT-treated animals): no significant difference
nucleus size ([1]; versus NT (P=0.02) and HT (P=0.04)): significantly improved
nuclear density by DAPI staining ([1]; versus NT animals, P=0.01): markedly improved
C1q/TUNEL co-localization ([1]; versus NT animals, ipsilateral cortex): qualitative reduction
cell counts (stained nuclei) ([1]; versus NT, P=0.03): significantly improved
decrease in brain infarct size (brain infarct after HIE): 68%
C1q expression (C1q): significant reduction
beam balance: hind paw slips ([2]; between study groups): No differences
beam balance: front paw slips ([2]; pooled genders and males, versus H/I+normo, p<0.05): fewer front paw slips
T-maze: time spent in novel and familiar arms, alley, center (T-maze test): no significant differences; also recorded: No statistical significances
